From US9828350B2, “5,6-dihydro-2H-[1,4]oxazin-3-yl-amine derivatives useful as inhibitors of beta-secretase (BACE)” (Janssen Pharmaceutica NV, priority 2010, dated 2017)

What was measured:
[1] = test system: Abeta 1-42; conditions: 20 mg/kg, 24 h
Description: (§1) Single Dose Pharmacology in the Beagle Dog
(§2) Compound 86 was tested to evaluate the effect on the beta-amyloid profile in cerebrospinal fluid (CSF) of dogs after a single dose, in combination with pharmacokinetic (PK) follow up and limited safety evaluation. 6 Beagle dogs (3 male, 3 female) were dosed with vehicle (4 ml/kg of an aqueous suspension of 20% cyclodextrin and Tween) and 6 Beagle dogs (3 male, 3 female) were dosed with compound 86 (20 mg/kg in 2 ml/kg of an aqueous 20% cyclodextrin solution) on an empty stomach. CSF was taken in conscious animals directly from the lateral ventricle via a cannula which was screwed in the skull and covered with subcutaneous tissue and skin, before and at 4, 8 and 24 hours after dosing. 8 Hours after dosing the animals got access to their regular meal for 30 minutes. Blood was taken for PK follow up (0.5, 1, 2, 4, 8 and 24 hours) and at the time of the CSF sampling, samples for serum analysis were taken. An additional sample for serum analysis was taken 10 days after dosing. The CSF samples were used for measurement of Abeta 1-37, Abeta 1-38, Abeta 1-40 and Abeta 1-42.

[2] = test system: Aβ42; assay: Demonstration of in vivo efficacy, brain Aβ42 lowering (ELISA); conditions: mouse brain, 30 mpk, s.c., 4 h
Text: To determine whether acute administration of an Aβ42 peptide lowering agent would reduce Aβ peptide levels in vivo, non-transgenic rodents, e.g. mice or rats were used. Animals treated with the Aβ peptide lowering agent were examined and compared to those untreated or treated with vehicle and brain levels of soluble Aβ42 and total Aβ were quantitated by standard techniques, for example, using ELISA.
A typical protocol for measuring Aβ42 lowering in vivo is shown but it is only one of many variations that could be used to optimize the levels of detectable Aβ. For example, Aβ peptide lowering compounds were formulated in 20% hydroxypropyl 3 cyclodextrin. The Aβ peptide lowering agents were administered as a single oral dose (p.o.) or a single subcutaneous dose (s.c.) to overnight fasted animals. After a certain time, usually 2 or 4 h (as indicated in Table 19), the animals were sacrificed and Aβ42 levels were analysed.
Blood was collected by decapitation and exsanguinations in EDTA-treated collection tubes. Blood was centrifuged at 1900 g for 10 minutes (min) at 4° C. and the plasma recovered and flash frozen for later analysis. The brain was removed from the cranium and hindbrain. The cerebellum was removed and the left and right hemisphere were separated. The left hemisphere was stored at −18° C. for quantitative analysis of test compound levels. The right hemisphere was rinsed with phosphate-buffered saline (PBS) buffer and immediately frozen on dry ice and stored at −80° C. until homogenization for biochemical assays.
Mouse brains from non-transgenic animals were resuspended in 8 volumes of 0.4% DEA (diethylamine)/50 mM NaCl containing protease inhibitors (Roche-11873580001 or 04693159001) per gram of tissue, e.g. for 0.158 g brain, add 1.264 ml of 0.4% DEA. All samples were homogenized in the FastPrep-24 system (MP Biomedicals) using lysing matrix D (MPBio #6913-100) at 6 m/s for 20 seconds. Homogenates were centrifuged at 221.300×g for 50 min. The resulting high speed supernatants were then transferred to fresh eppendorf tubes. Nine parts of supernatant were neutralized with 1 part 0.5 M Tris-HCl pH 6.8 and used to quantify Aβtotal and Aβ42.
To quantify the amount of Aβtotal and Aβ42 in the soluble fraction of the brain homogenates, Enzyme-Linked-Immunosorbent-Assays were used. Briefly, the standards (a dilution of synthetic Aβ1-40 and Aβ1-42, Bachem) were prepared in 1.5 ml Eppendorf tube in Ultraculture, with final concentrations ranging from 10000 to 0.3 pg/ml. The samples and standards were co-incubated with HRPO-labelled N-terminal antibody for Aβ42 detection and with the biotinylated mid-domain antibody 4G8 for Aβtotal detection. […] The plate was allowed to incubate overnight at 4° C. in order to allow formation of the antibody-amyloid complex. Following this incubation and subsequent wash steps the ELISA for Aβ42 quantification was finished by addition of Quanta Blu fluorogenic peroxidase substrate according to the manufacturer's instructions (Pierce Corp., Rockford, Ill.). A reading was performed after 10 to 15 min (excitation 320 nm/emission 420 nm).

[3] = biological target: recombinant BACE1 protein (Homo sapiens, UniProt P56817); assay: Biochemical FRET based assay; conditions: recombinant BACE1 1 μg/ml, 120 minutes at room temperature, pH 5.0; read-out: Biochemical FRET based assay pIC50 (converted)
Chain of recombinant BACE1 protein (P56817 46-501): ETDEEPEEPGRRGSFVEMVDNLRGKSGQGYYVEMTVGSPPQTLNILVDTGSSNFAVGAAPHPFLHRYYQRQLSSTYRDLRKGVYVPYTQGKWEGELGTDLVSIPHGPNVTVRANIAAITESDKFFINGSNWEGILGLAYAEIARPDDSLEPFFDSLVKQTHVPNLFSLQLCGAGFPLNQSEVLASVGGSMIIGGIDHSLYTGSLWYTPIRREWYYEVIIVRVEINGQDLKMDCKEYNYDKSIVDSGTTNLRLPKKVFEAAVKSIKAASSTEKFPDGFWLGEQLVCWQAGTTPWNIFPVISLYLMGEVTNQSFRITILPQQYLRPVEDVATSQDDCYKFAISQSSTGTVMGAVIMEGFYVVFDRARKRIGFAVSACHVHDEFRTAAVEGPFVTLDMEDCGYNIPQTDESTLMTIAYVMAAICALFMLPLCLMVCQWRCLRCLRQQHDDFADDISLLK
How it was run: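 Proteolysis was read as the rise in donor fluorescence (320 nm excitation, 405 nm emission) from T0 to T120, expressed in RFU. The reaction ran 120 minutes at room temperature at pH 5.0 in citrate buffer with 4% DMSO, using […] quenched Swedish APP peptide and 1 μg/ml BACE1.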

[4] = biological target: T1, P-gp (Homo sapiens, UniProt P08183); assay: Transepithelial transport of test compounds through LLC-MDR1 monolayers; type: in vitro ADME; conditions: pig, LLC-PK1
T1 construct: expressed in transfected cells; host or cells: LLC-PK1 cells stably transduced with MDR1 (LLC-MDR1)
T1 sequence (P08183 whole entry): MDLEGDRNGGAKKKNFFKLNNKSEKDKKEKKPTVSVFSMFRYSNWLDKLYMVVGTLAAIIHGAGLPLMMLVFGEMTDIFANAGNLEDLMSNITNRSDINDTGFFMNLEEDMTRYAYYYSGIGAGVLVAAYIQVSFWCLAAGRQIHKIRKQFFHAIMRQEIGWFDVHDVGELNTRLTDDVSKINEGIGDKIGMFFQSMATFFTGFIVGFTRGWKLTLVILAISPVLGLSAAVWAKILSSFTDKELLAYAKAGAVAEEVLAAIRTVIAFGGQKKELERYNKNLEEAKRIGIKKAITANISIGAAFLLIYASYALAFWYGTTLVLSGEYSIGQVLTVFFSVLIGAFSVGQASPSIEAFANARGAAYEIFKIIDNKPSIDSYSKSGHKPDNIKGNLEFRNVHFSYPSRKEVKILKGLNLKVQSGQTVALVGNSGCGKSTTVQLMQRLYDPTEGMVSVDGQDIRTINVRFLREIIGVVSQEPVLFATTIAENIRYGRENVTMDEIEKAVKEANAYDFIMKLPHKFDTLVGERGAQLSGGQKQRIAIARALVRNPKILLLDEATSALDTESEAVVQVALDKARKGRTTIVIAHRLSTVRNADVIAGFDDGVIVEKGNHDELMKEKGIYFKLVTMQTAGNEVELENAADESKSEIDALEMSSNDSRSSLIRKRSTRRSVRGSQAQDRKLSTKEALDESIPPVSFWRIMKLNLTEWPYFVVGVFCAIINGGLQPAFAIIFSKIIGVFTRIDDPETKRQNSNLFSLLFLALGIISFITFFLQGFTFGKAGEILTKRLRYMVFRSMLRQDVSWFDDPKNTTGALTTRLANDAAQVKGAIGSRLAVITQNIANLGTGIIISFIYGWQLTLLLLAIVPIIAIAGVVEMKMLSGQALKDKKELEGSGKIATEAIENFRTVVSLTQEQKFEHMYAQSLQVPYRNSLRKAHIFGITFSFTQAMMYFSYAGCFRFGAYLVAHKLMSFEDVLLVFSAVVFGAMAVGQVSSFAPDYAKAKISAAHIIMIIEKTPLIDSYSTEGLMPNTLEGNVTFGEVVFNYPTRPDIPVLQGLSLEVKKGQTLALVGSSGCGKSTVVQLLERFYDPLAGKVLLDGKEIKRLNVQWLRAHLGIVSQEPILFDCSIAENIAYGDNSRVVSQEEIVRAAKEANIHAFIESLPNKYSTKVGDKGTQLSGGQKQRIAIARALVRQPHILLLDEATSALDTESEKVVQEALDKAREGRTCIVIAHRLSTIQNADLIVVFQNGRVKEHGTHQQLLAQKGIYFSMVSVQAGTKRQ
How it was run: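 LLC-PK1 cells stably transduced with human MDR1, grown 5 days on transwell inserts; compound at 1 μM applied apically or basolaterally (A→B, B→A) in OPTI-MEM with 1% BSA, 120 min at 37 °C, triplicate. Acceptor and donor sampled and quantified by LC-MS/MS; fluorescein checked monolayer integrity.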

[5] = test system: Abeta 1-40; conditions: 20 mg/kg, 24 h
Description: as §1, §2

IC50 [3]: 38.9 nM
efflux ratio at 120 min, 1 μM ([4]; LLC-MDR1 monolayers, ratio of B to A and A to B permeation rates, read-out: BA/AB): 1.6
Papp A→B at 120 min, 1 μM ([4]; read-out: A to B (Apparent Permeability, Papp)): 13.2 ×10⁻⁶ cm/s
Papp B→A at 120 min, 1 μM ([4]; read-out: B to A (Apparent Permeability, Papp)): 20.9 ×10⁻⁶ cm/s
melting point: 157.7 °C
Structure (SMILES): C[C@]1(c2cccc(NC(=O)c3ccc(Cl)cn3)c2)N=C(N)CO[C@@H]1F (single isomer, unassigned) [Compound 86, (R*,R*)—N-[3-(5-amino-2-fluoro-3-methyl-3,6-dihydro-2H-1,4-oxazin-3-yl)phenyl]-5-chloropyridine-2-carboxamide]
decrease in Abeta 1-42 in CSF compared to own baseline [1]: > 90%
Aβ42 (% Ctrl)_Mean [2]: 60 % Ctrl
decrease in Abeta 1-40 in CSF compared to own baseline [5]: > 90%
